Reference: patent US20240245670A1, “DOSING REGIMEN AND PHARMACEUTICAL COMBINATION COMPRISING 3-(1-OXOISOINDOLIN-2-YL)PIPERIDINE-2,6-DIONE DERIVATIVES” (Novartis AG, priority 2018, published 2024)

Tests used:
[1] = tested on: IKZF2 expression in FOXP3+ T cells from PBMCs; experiment: PD after single oral dose in cynomolgus monkey: IKZF2 expression by flow cytometry; format: in vivo
Method: (§1) FIG. 4 is a graph showing the PK/PD relationship in the cynomolgus monkey after a single oral of 0.01, 0.1 or 1 mg/kg of Compound I-57.
(§2) FIG. 5. is a graph showing plasma concentration in the cynomolgus monkey of Compound I-57 and IKZF2 expression (as determined by flow cytometry) in FOXP3+ T cells from PBMCs after a single oral of 0.01, 0.1 or 1 mg/kg of Compound I-57.
(§3) The PK/PD relationship of I-57 was examined in cynomolgus monkeys after a single oral dose of 0.01, 0.1 or 1 mg/kg. I-57 plasma concentration and IKZF2 expression (as determined by flow cytometry) in FOXP3+ T cells from PBMCs were determined (FIG. 4 and FIG. 5).
Decreased (percentage change) IKZF2 positive FOXP3-cells, as determined by flow cytometry, were detectable at 4h post dose in the 1 mg/kg and 0.1 mg/kg groups, reaching maximum at 12-24 hrs post-dose and maintaining this maximum for 12-24 hrs.

[2] = In vivo non-clinical PK profile, i.v. and p.o., all species tested (mouse, rat, dog, cynomolgus monkey)
Method: The in vivo non-clinical PK profile of I-57 was investigated in mouse, rat, dog and cynomolgus monkey using I-57 free base. […] After p.o. administration, the absorption of I-57 was rapid with peak blood concentration (Tmax) occurring between 1 and 4 hours. […] In high dose PK and toxicology studies with I-57 the exposures in mouse, rat and monkey increased with dose.

[3] = PK after single oral dose in cynomolgus monkey (FIG. 4, FIG. 5, Table 13); format: in vivo; details: for AUC24 h (unbound) / AUC24 h/Dose (unbound) / Cmax (unbound) / Cmax/Dose (unbound): cynomolgus monkey, unbound exposure, n = 3, mean ± SD
Method: as §1, §2, §3

[4] = biological target: T1, FIZ1 (Homo sapiens, UniProt Q96SL8+Q96SW2); experiment: Whole cell proteomic analysis in 293T cells and subsequent analyses; format: cell-based
T1 construct: endogenous in cells; host or cells: 293T
T1 sequence (Q96SL8 whole entry): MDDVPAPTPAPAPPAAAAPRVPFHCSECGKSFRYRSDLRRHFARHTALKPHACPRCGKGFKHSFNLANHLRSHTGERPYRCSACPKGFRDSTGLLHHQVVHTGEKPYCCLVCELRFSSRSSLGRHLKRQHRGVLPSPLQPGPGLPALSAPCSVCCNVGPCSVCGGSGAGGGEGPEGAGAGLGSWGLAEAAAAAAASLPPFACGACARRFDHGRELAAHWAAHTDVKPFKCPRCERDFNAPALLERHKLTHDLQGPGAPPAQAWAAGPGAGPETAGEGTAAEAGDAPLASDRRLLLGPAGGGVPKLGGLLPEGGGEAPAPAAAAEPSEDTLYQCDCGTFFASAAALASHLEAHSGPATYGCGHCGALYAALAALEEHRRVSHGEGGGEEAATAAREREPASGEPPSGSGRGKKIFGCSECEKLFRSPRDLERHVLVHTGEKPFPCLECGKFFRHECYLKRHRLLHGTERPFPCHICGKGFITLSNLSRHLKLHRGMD
T1 sequence (Q96SW2 whole entry): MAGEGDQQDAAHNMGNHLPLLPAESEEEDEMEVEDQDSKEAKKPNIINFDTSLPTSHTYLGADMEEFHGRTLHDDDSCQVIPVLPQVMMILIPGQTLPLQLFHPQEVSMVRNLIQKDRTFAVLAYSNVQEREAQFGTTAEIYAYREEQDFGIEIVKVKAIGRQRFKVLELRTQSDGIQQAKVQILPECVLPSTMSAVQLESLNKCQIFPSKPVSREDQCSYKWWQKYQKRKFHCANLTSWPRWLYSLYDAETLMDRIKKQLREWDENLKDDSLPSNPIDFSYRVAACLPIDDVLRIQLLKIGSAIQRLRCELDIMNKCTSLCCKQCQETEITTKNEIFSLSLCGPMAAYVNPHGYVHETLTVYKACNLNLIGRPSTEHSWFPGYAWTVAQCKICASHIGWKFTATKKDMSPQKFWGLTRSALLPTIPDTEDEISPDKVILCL
T1 sequence (Q16531 whole entry partner): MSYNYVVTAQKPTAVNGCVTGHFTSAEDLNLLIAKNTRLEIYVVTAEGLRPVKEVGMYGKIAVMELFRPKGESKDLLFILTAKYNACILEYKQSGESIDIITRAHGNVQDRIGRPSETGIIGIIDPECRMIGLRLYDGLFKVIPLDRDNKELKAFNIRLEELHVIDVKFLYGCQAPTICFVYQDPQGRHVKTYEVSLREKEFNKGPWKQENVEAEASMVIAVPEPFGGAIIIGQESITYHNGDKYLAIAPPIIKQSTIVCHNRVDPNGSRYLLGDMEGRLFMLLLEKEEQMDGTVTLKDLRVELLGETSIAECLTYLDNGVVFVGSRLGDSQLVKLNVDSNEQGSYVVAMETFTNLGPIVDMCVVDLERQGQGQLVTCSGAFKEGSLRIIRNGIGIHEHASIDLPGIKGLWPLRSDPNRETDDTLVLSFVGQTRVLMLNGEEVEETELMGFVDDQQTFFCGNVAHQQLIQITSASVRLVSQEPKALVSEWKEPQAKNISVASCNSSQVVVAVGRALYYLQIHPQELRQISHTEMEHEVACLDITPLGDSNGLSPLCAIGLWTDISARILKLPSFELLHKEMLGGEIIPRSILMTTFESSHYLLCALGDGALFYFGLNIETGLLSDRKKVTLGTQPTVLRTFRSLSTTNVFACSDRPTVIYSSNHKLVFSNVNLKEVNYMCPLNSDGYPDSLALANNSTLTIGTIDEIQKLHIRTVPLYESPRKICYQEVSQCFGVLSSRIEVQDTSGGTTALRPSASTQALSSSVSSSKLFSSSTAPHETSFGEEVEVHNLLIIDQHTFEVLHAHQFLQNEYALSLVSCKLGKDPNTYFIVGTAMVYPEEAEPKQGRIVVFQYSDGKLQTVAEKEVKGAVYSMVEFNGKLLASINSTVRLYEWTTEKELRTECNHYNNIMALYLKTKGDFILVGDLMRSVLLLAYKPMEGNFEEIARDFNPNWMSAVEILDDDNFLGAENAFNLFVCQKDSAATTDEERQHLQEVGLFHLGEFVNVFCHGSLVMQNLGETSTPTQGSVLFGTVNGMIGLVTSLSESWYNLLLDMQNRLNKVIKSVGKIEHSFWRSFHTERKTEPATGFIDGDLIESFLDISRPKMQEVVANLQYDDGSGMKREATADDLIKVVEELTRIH
Method: Other potential degradation targets of I-57 were evaluated in 293T cells using whole cell proteomic analysis. […] Subsequent analyses have confirmed that FIZ1 is degraded by about 50% at a 10 μM concentration of I-57 ([I-57 Investigator's Brochure]). […] FIZ1 is expressed in the neural retina where it transcriptionally represses the differentiation of photoreceptors. FIZ1 is also expressed in non-ocular tissues with unknown function.

[5] = single oral dose of 0.01, 0.1 or 1 mg/kg

For `O=C1CCC(N2Cc3cc(C4CCN(Cc5ccccc5)CC4)ccc3C2=O)C(=O)N1` (centres unmarked) [Compound I-57, 3-(5-(1-benzylpiperidin-4-yl)-1-oxoisoindolin-2-yl)piperidine-2,6-dione], the “time at which decreased IKZF2 positive FOXP3 cells were detectable” value ([1]; post dose, 1 mg/kg and 0.1 mg/kg groups) was 4 h, the “duration for which maximum decrease was maintained” value ([1]; single oral dose) was 12 to 24 h and the “dose dependence of decrease in IKZF2 positive cells” value [1, 5] was “dose dependent”. For the same compound, the “terminal half-life (T1/2)” value ([2]; i.v. administration, all species tested) was “moderate”, the absorption ([2]; p.o. administration) was “rapid” and the “AUC24 h (unbound)” value ([3]; single oral dose 0.01 mg/kg) was 14.1 ± 4.72 ng·h/mL. The “AUC24 h/Dose (unbound)” value ([3]; single oral dose 0.01 mg/kg) was 1410 ± 472 (ng · h/mL)/(mg/kg), the “Cmax (unbound)” value ([3]; single oral dose 0.01 mg/kg) was 2.11 ± 0.69 ng/mL and the “Cmax/Dose (unbound)” value ([3]; single oral dose 0.01 mg/kg) was 211 ± 69.1 (ng/mL)/(mg/kg). For the same compound, the “AUC24 h (unbound)” value ([3]; single oral dose 0.1 mg/kg) was 102 ± 13.2 ng·h/mL, the “AUC24 h/Dose (unbound)” value ([3]; single oral dose 0.1 mg/kg) was 1020 ± 136 (ng · h/mL)/(mg/kg) and the “Cmax (unbound)” value ([3]; single oral dose 0.1 mg/kg) was 13.4 ± 2.77 ng/mL. For the same compound, the “Cmax/Dose (unbound)” value ([3]; single oral dose 0.1 mg/kg) was 134 ± 27.7 (ng/mL)/(mg/kg), the “AUC24 h (unbound)” value ([3]; single oral dose 1 mg/kg) was 610 ± 236 ng·h/mL and the “AUC24 h/Dose (unbound)” value ([3]; single oral dose 1 mg/kg) was 610 ± 236 (ng · h/mL)/(mg/kg). The “Cmax (unbound)” value ([3]; single oral dose 1 mg/kg) was 102 ± 45.3 ng/mL, the “Cmax/Dose (unbound)” value ([3]; single oral dose 1 mg/kg) was 102 ± 45.3 (ng/mL)/(mg/kg) and the “dose proportionality of observed exposures” value [3, 5] was “slightly less than dose proportional”. For the same compound, the FIZ1 degradation ([4]; 10 μM concentration of I-57) was “about 50%” and the “FIZ1 degradation (proteomics)” value ([4]; 293T cells, nearly 8000 proteins identified) was “degraded”.
